Experimental data from ChEMBL document CHEMBL4007424, “Design and Synthesis of Enantiomerically Pure Decahydroquinoxalines as Potent and Selective κ-Opioid Receptor Agonists with Anti-Inflammatory Activity in Vivo” (J Med Chem, 2017).
Calls of active or inactive are those of the source. The calls are words filed in the database; no cut-off is given here.

How the values were obtained:
Mus musculus [1] = test: Antiinflammatory activity in oxazolone-induced delayed type hypersensitivity BALB/c mouse model assessed as effect on histology changes at 0.1 to 2.5 mg applied topically on ear administered 3 hrs prior to oxazolone challenge on day 7 to 12 post sensitization followed by re-administration of compound on day 13 to 18 without oxazolone challenge measured daily prior to treatment from day 7 to 19 by H and E staining based assay; type: functional
Sus scrofa = species on record: Sus scrofa; test: Displacement of [3H]-(+)-MK 801 from PCP binding site of NMDA receptor in pig brain cortex membranes at 10 uM after 120 mins by solid scintillation counting; type: cell membranes
Rattus norvegicus [2] = species on record: Rattus norvegicus; test: Displacement of [3H]-DTG from sigma 2 receptor in rat liver membranes at 1 uM after 120 mins by scintillation counting; type: cell membranes; conditions: Membrane
Mus musculus [3] = test: Antiinflammatory activity in oxazolone-induced delayed type hypersensitivity BALB/c mouse model assessed as reduction in ear thickness at 0.5 mg applied topically on ear administered 3 hrs prior to oxazolone challenge on day 7 to 12 post sensitization followed by re-administration of compound on day 13 to 18 without oxazolone challenge measured on day 19; type: functional
[4] = molecular target: T1, Kappa-type opioid receptor (Homo sapiens, UniProt P41145); test: Agonist activity at recombinant human kappa-type opioid receptor expressed in HEK293 cells at 1 uM after 30 mins by [35S]GTPgammaS binding assay; type: functional, cell-based
T1 sequence (P41145 whole entry): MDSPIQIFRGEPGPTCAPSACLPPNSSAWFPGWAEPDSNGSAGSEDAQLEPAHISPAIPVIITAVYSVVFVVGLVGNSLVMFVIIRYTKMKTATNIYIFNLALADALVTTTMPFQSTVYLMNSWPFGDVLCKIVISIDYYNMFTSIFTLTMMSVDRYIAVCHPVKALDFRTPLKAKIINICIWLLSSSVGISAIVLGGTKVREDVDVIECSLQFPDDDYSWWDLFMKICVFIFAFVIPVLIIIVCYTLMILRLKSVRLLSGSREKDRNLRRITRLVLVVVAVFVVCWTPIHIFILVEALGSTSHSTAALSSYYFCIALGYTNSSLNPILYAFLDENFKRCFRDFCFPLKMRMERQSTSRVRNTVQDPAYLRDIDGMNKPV

[5] = molecular target: Sigma non-opioid intracellular receptor 1 (Cavia porcellus) (UniProt Q60492); test: Displacement of [3H]-(+)-pentazocine from sigma1-type […] receptor in guinea pig cortex membranes at 1 uM after 120 mins by solid scintillation counting; type: cell membranes
Sigma non-opioid intracellular receptor 1 (Cavia porcellus), sequence (Q60492 whole entry): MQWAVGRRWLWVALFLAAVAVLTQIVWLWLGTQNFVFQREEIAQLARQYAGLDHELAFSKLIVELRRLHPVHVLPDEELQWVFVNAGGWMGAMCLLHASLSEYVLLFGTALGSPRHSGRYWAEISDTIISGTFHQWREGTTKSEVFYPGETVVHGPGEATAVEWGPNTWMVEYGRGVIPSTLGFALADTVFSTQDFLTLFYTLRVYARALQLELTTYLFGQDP

Mus musculus [6] = test: Antiinflammatory activity in oxazolone-induced delayed type hypersensitivity BALB/c mouse model assessed as reduction in ear weight at 0.1 to 2.5 mg applied topically on ear administered 3 hrs prior to oxazolone challenge on day 7 to 12 post sensitization followed by re-administration of compound on day 13 to 18 without oxazolone challenge measured on day 19; type: functional
Mus musculus [7] = test: Antiinflammatory activity in tropically administered oxazolone-induced delayed type hypersensitivity BALB/c mouse model assessed as effect on ear weight administered 3 hrs prior to oxazolone challenge on day 7 to 12 post sensitization followed by re-administration of compound on day 13 to 18 without oxazolone challenge measured on day 19; type: functional
[8] = Plasma concentration in Wistar Han rat at 1 mg/kg, iv measured 1 hr post compound administration; type: ADME, organism-based
[9] = Ratio of drug level in brain to plasma in Wistar Han rat at 1 mg/kg, iv after 1 hr; type: ADME, organism-based; conditions: read-out: BPR
[10] = Plasma concentration in Wistar Han rat at 1 mg/kg, iv measured 0.25 hrs post compound administration; type: ADME, organism-based
[11] = Drug level in Wistar Han rat brain at 1 mg/kg, iv measured 1 hr post compound administration; type: ADME, organism-based; conditions: Wistar Han, brain, read-out: Drug uptake
Rattus norvegicus [12] = test: Toxicity in Wistar Han rat assessed as clinical signs changes at 1 mg/kg, iv after 1 hr; type: organism-based; conditions: in vivo
[13] = molecular target: Mu-type opioid receptor (Cavia porcellus) (UniProt P97266); test: Displacement of [3H]DAMGO from mu-type opioid receptor in guinea pig brain membranes at 1 uM after 120 mins by solid scintillation counting; type: cell membranes; conditions: Membrane
Mu-type opioid receptor (Cavia porcellus), sequence (P97266 whole entry): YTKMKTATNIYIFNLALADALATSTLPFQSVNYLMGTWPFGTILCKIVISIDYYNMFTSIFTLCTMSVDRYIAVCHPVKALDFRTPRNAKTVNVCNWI

Cavia porcellus = species on record: Cavia porcellus; test: Selectivity ratio of Ki for delta-type opioid receptor in guinea pig brain membranes to Ki for kappa-type opioid receptor in guinea pig brain membranes; type: cell membranes
Mus musculus [14] = test: Antiinflammatory activity in arachidonic acid-induced ear dermatitis ICR mouse model assessed as reduction in ear swelling at 3 mg administered twice tropically 30 mins prior and 15 mins after arachidonic acid addition measured 60 mins post arachidonic acid challenge relative to control; type: functional
Mus musculus [15] = test: Antiinflammatory activity in oxazolone-induced delayed type hypersensitivity BALB/c mouse model assessed as reduction in ear swelling at 2.5 mg applied topically on ear administered 3 hrs prior to oxazolone challenge on day 7 to 12 post sensitization followed by re-administration of compound on day 13 to 18 without oxazolone challenge measured daily prior to treatment from day 7 to 19; type: functional
[16] = Displacement of [3H]DPDPE from delta-type opioid receptor in guinea pig brain membranes after 120 mins by solid scintillation counting; type: cell membranes, Cavia porcellus, Membrane
[17] = molecular target: Kappa-type opioid receptor (Cavia porcellus, UniProt P41144); test: Displacement of [3H]U-69,593 from kappa-type opioid receptor in guinea pig brain membranes after 120 mins by solid scintillation counting; type: cell membranes, Membrane
Kappa-type opioid receptor (Cavia porcellus, UniProt P41144), sequence (P41144 whole entry): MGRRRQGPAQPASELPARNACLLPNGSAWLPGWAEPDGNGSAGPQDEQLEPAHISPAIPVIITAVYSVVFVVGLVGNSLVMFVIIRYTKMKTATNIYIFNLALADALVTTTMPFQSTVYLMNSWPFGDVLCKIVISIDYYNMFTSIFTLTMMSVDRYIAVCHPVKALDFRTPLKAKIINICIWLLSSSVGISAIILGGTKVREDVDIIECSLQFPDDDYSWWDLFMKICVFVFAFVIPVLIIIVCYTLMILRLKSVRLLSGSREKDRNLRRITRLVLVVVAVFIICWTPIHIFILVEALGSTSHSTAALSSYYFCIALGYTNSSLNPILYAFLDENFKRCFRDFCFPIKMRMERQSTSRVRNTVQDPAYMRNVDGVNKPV

[18] = molecular target: T1, Kappa-type opioid receptor; test: Agonist activity at recombinant human kappa-type opioid receptor expressed in HEK293 cells after 30 mins by [35S]GTPgammaS binding assay; type: functional, cell-based
Mus musculus [19] = test: Antiinflammatory activity in arachidonic acid-induced ear dermatitis ICR mouse model assessed as reduction in ear swelling at 0.1 mg administered twice tropically 30 mins prior and 15 mins after arachidonic acid addition measured 60 mins post arachidonic acid challenge relative to control; type: functional
Mus musculus [20] = test: Antiinflammatory activity in arachidonic acid-induced ear dermatitis ICR mouse model assessed as reduction in ear swelling at 0.3 mg administered twice tropically 30 mins prior and 15 mins after arachidonic acid addition measured 60 mins post arachidonic acid challenge relative to control; type: functional
Mus musculus [21] = test: Antiinflammatory activity in arachidonic acid-induced ear dermatitis ICR mouse model assessed as reduction in ear swelling at 1 mg administered twice tropically 30 mins prior and 15 mins after arachidonic acid addition measured 60 mins post arachidonic acid challenge relative to control; type: functional
Mus musculus [22] = test: Antiinflammatory activity in oxazolone-induced delayed type hypersensitivity BALB/c mouse model assessed as reduction in ear weight at 2.5 mg applied topically on ear administered 3 hrs prior to oxazolone challenge on day 7 to 12 post sensitization followed by re-administration of compound on day 13 to 18 without oxazolone challenge measured on day 19; type: functional
[23] = Lipophilicity, logD of the compound at pH 7.4 by LC/MS analysis; type: physicochemical; conditions: buffer
[24] = Drug level in Wistar Han rat brain at 5 mg/kg, iv measured 1 hr post compound administration; type: ADME, organism-based; conditions: read-out: Drug uptake
[25] = Plasma concentration in Wistar Han rat at 5 mg/kg, iv measured 1 hr post compound administration; type: ADME, organism-based
[26] = Ratio of drug level in brain to plasma in Wistar Han rat at 5 mg/kg, iv after 1 hr; type: ADME, organism-based; conditions: read-out: BPR
Rattus norvegicus [27] = test: Toxicity in Wistar Han rat assessed as assessed as clinical signs changes at 5 mg/kg, iv after 1 hr; type: organism-based; conditions: in vivo
[28] = Plasma concentration in Wistar Han rat at 5 mg/kg, iv measured 0.25 hrs post compound administration; type: ADME, organism-based

COC(=O)N1CCN(C(=O)Cc2ccc(Cl)c(F)c2)[C@@H]2[C@@H](N3CC[C@H](O)C3)CCC[C@@H]21
Activity (Mus musculus [1]): Active | inhibition (Sus scrofa): 11% | inhibition (Rattus norvegicus [2]): 0% | Activity (Mus musculus [3]): Active | Activity [4]: 93% | inhibition [5]: 0% | Activity (Mus musculus [6]): Dose-dependent effect | Activity (Mus musculus [7]): Dose-dependent effect

COC(=O)N1CCN(C(=O)Cc2ccc(Cl)c(Cl)c2)[C@@H]2[C@@H](N3CC[C@@H](O)C3)CCC[C@@H]21.Cl
concentration at 1 h [8]: 115 ng/mL | Kp at 1 h [9]: 0.07 | concentration at 0.25 h [10]: 454 ng/mL | concentration at 1 h [11]: 7.9 ng/g | Activity (Rattus norvegicus [12]): Non-Toxic

COC(=O)CN1CCN(C(=O)Cc2ccc(Cl)c(Cl)c2)[C@@H]2[C@@H](N3CCCC3)CCC[C@@H]21.Cl
concentration at 1 h [8]: 199 ng/mL | Kp at 1 h [9]: 0.02 | concentration at 0.25 h [10]: 477 ng/mL | concentration at 1 h [11]: 4.6 ng/g | Activity (Rattus norvegicus [12]): Non-Toxic

COC(=O)N1CCN(C(=O)Cc2ccc(F)c(F)c2)[C@@H]2[C@@H](N3CC[C@H](O)C3)CCC[C@@H]21 [listing 1 of 2 here]
Activity (Mus musculus [1]): Active | inhibition (Sus scrofa): 11% | inhibition [13]: 4% | inhibition (Rattus norvegicus [2]): 10% | Activity (Mus musculus [3]): Active | Activity [4]: 108% | inhibition [5]: 34% | Activity (Mus musculus [6]): Dose-dependent effect | Activity (Mus musculus [7]): Dose-dependent effect

COC(=O)N1CCN(C(=O)Cc2ccc(Cl)c(Cl)c2)[C@@H]2[C@@H](N(C)C)CCC[C@@H]21
Ratio Ki (Cavia porcellus): > 50 | inhibition (Sus scrofa): 0% | inhibition [13]: 0% | inhibition (Rattus norvegicus [2]): 0% | Activity [4]: 96% | inhibition [5]: 4%

COC(=O)N1CCN(C(=O)Cc2ccc(Cl)cc2)[C@@H]2[C@@H](N3CC[C@H](O)C3)CCC[C@@H]21
Activity (Mus musculus [1]): Active | inhibition (Sus scrofa): 7% | inhibition (Rattus norvegicus [2]): 11% | Activity [4]: 103% | inhibition [5]: 21% | Activity (Mus musculus [6]): Dose-dependent effect | Activity (Mus musculus [7]): Dose-dependent effect

CNC(=O)C(=O)N1CCN(C(=O)Cc2ccc(Cl)c(Cl)c2)[C@@H]2[C@@H](N3CCCC3)CCC[C@@H]21
inhibition (INH) (Mus musculus [14]): 65% | Activity (Mus musculus [15]): Active | Ki [16]: 681 nM | inhibition (Sus scrofa): 8% | inhibition [13]: 12% | Ki [17]: 1.5 nM | inhibition (Rattus norvegicus [2]): 4% | Activity [4]: 104% | EC50 [18]: 8.1 nM | inhibition (INH) (Mus musculus [19]): 21% | inhibition [5]: 0% | inhibition (INH) (Mus musculus [20]): 30% | inhibition (INH) (Mus musculus [21]): 53% | Activity (Mus musculus [22]): Active | logD [23]: 1.71

O=C(Cc1ccc(Cl)c(F)c1)N1CCN(S(=O)(=O)Cc2ccon2)[C@H]2CCC[C@H](N3CC[C@H](O)C3)[C@H]21
Ki [16]: 1380 nM | inhibition (Sus scrofa): 13% | inhibition [13]: 6% | Ki [17]: 0.82 nM | inhibition (Rattus norvegicus [2]): 7% | Activity [4]: 105% | EC50 [18]: 1.4 nM | inhibition [5]: 0% | logD [23]: 1.4

CS(=O)(=O)N1CCN(C(=O)Cc2ccc(Cl)c(Cl)c2)[C@@H]2[C@@H](N3CCCC3)CCC[C@@H]21.Cl
concentration at 1 h [8]: 124 ng/mL | Kp at 1 h [9]: 0.02 | concentration at 0.25 h [10]: 246 ng/mL | concentration at 1 h [11]: 2.9 ng/g | Activity (Rattus norvegicus [12]): Non-Toxic

CC(C)NC(=O)N1CCN(C(=O)Cc2ccc(Cl)c(Cl)c2)[C@@H]2[C@@H](N3CCCC3)CCC[C@@H]21.Cl
concentration at 1 h [8]: 130 ng/mL | Kp at 1 h [9]: 0.02 | concentration at 0.25 h [10]: 290 ng/mL | concentration at 1 h [11]: 2.9 ng/g | Activity (Rattus norvegicus [12]): Non-Toxic

COC(=O)N1CCN(C(=O)Cc2ccc(Cl)c(F)c2)[C@@H]2[C@@H](N3CC[C@H](O)C3)CCC[C@@H]21.Cl
concentration at 1 h [24]: 66.2 ng/g | concentration at 1 h [25]: 546 ng/mL | Kp at 1 h [26]: 0.12 | Activity (Rattus norvegicus [27]): Non-Toxic | concentration at 0.25 h [28]: 1350 ng/mL

CS(=O)(=O)N1CCN(C(=O)Cc2ccc(F)c(Cl)c2)[C@@H]2[C@@H](N3CC[C@H](O)C3)CCC[C@@H]21.Cl
concentration at 1 h [24]: 38.7 ng/g | concentration at 1 h [25]: 356 ng/mL | Kp at 1 h [26]: 0.11 | Activity (Rattus norvegicus [27]): Non-Toxic | concentration at 0.25 h [28]: 1210 ng/mL

CS(=O)(=O)N1CCN(C(=O)Cc2ccc(Cl)c(Cl)c2)[C@@H]2[C@@H](N3CC[C@H](O)C3)CCC[C@@H]21.Cl
concentration at 1 h [24]: 52.3 ng/g | concentration at 1 h [25]: 2170 ng/mL | Kp at 1 h [26]: 0.02 | Activity (Rattus norvegicus [27]): Non-Toxic | concentration at 0.25 h [28]: 4650 ng/mL

COC(=O)N1CCN(C(=O)Cc2ccc(F)c(Cl)c2)[C@@H]2[C@@H](N3CC[C@H](O)C3)CCC[C@@H]21
Ratio Ki (Cavia porcellus): 80 | inhibition (Sus scrofa): 13% | inhibition (Rattus norvegicus [2]): 35% | Activity [4]: 110% | inhibition [5]: 0%

COC(=O)N1CCN(C(=O)Cc2cccc(Cl)c2)[C@@H]2[C@@H](N3CC[C@H](O)C3)CCC[C@@H]21
inhibition (Sus scrofa): 4% | inhibition (Rattus norvegicus [2]): 0% | Activity (Mus musculus [3]): Active | Activity [4]: 102% | inhibition [5]: 0%

COC(=O)N1CCN(C(=O)Cc2ccc(F)c(F)c2)[C@@H]2[C@@H](N3CC[C@H](O)C3)CCC[C@@H]21 [listing 2 of 2 here]
inhibition (INH) (Mus musculus [14]): 64% | Ki [16]: 623 nM | Ki [17]: 1.2 nM | EC50 [18]: 11 nM | inhibition (INH) (Mus musculus [19]): 1% | inhibition (INH) (Mus musculus [20]): -20% | inhibition (INH) (Mus musculus [21]): -11% | logD [23]: 0.77
